This passage reports IC50 results from US9586931B2 (Merck Sharp & Dohme Corp., priority 2012, dated 2017).

Structures are written as SMILES.

This assay deals with T1, recombinant human GST-Syk (Homo sapiens, UniProt P43405).
T1 construct: purchased Carna Biosciences 08-176
Description: Homogeneous Time-Resolved Fluorescence (HTRF) assay for the recombinant human Syk enzyme. It counts as biochemical. Particulars: recombinant human GST-Syk 5 pM, ATP 25 μM, 10-dose titration 10 μM to 0.508 nM; read-out: rhSYK Activity IC50. The essentials:
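GST-hSyk fusion protein phosphorylated a peptide for 45 min at room temperature. The reaction was quenched with 2 nM Eu-anti-phosphotyrosine antibody and 70 nM SA-APC in 15 mM Tris pH 7.5, 40 mM EDTA, 0.01% Tween 20. The HTRF signal was read after 30 min.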
(In general: Time-resolved FRET reads energy transfer from a long-lived donor to a nearby acceptor.)
What is called IC50 is the concentration that inhibits the measured activity by half. Take `Cc1cc(Nc2ncc(F)c(C(F)F)n2)cc(-c2cn(C3CCCCC3(C)O)nn2)c1` (single isomer, unassigned) [Example 7.26, 2-[4-(3-{[4-(difluoromethyl)-5-fluoropyrimidin-2-yl]amino}-5-methylphenyl)-1H-1,2,3-triazol-1-yl]-1-methylcyclohexanol]: the IC50 was found to be 13.1 nM. As to `Cc1cc(Nc2nccc(OC(C)C)n2)cc(-c2cn(CC(C)(O)C(C)(C)O)nn2)c1` (centres unmarked) [Example 21.13, 2,3-dimethyl-1-[4-(3-methyl-5-{[4-(1-methylethoxy)pyrimidin-2-yl]amino}phenyl)-1H-1,2,3-triazol-1-yl]butane-2,3-diol], the IC50 was found to be 39.6 nM.

As for `Cc1cc(Nc2ncc(F)c(C(F)F)n2)cc(-c2cn(C3CCCCC3O)nn2)c1` (single isomer, unassigned) [Example 7.29, 2-[4-(3-{[4-(difluoromethyl)-5-fluoropyrimidin-2-yl]amino}-5-methylphenyl)-1H-1,2,3-triazol-1-yl]cyclohexanol], the IC50 was found to be 14.3 nM. Then `Cc1cc(Nc2cc(C(F)(F)F)ccn2)nc(-c2cn(CC(C)(O)CO)nn2)c1` (centres unmarked) [Example 10.15, 2-methyl-3-[4-(4-methyl-6-{[4-(trifluoromethyl)pyridin-2-yl]amino}pyridin-2-yl)-1H-1,2,3-triazol-1-yl]propane-1,2-diol], with 7.2 nM; and `Cc1cc(Nc2nccc(C(F)(F)F)n2)cc(-c2cn(Cc3noc(C)n3)nn2)c1` [Example 5.69, N-(3-methyl-5-{1-[(5-methyl-1,2,4-oxadiazol-3-yl)methyl]-1H-1,2,3-triazol-4-yl}phenyl)-4-(trifluoromethyl)pyrimidin-2-amine], with 57.2 nM. Then `Cc1cc(Nc2cc(C(F)(F)F)ccn2)nc(-c2cn(C/C=C/C(=O)O)nn2)c1` [Example 5.45, (2E)-4-[4-(4-methyl-6-{[4-(trifluoromethyl)pyridin-2-yl]amino}pyridin-2-yl)-1H-1,2,3-triazol-1-yl]but-2-enoic acid], with 8.3 nM; and `Cc1cc(Nc2cc(C(F)(F)F)ccn2)nc(-c2cn(CC(O)CO)nn2)c1` (racemic) [Example 5.95, 3-[4-(4-methyl-6-{[4-(trifluoromethyl)pyridin-2-yl]amino}pyridin-2-yl)-1H-1,2,3-triazol-1-yl]propane-1,2-diol], with 7.9 nM; and `Cc1cc(Nc2nccc(C(F)(F)F)n2)cc(-n2cc(C3(O)CCC4(CC3)OCCO4)nn2)c1` [Example 15, 8-[1-(3-Methyl-5-{[4-(trifluoromethyl)pyrimidin-2-yl]amino}phenyl)-1H-1,2,3-triazol-4-yl]-1,4-dioxaspiro[4.5]decan-8-ol], with 94.7 nM. Then `Cc1cc(Nc2cc(C(F)(F)F)ccn2)nc(-c2cn(C(C)C(=O)NC(C)c3cnn(-c4ccccc4F)c3)nn2)c1` (centres unmarked) [Example 1.35, N-{1-[1-(2-fluorophenyl)-1H-pyrazol-4-yl]ethyl}-2-[4-(4-methyl-6-{[4-(trifluoromethyl)pyridin-2-yl]amino}pyridin-2-yl)-1H-1,2,3-triazol-1-yl]propanamide], with 171 nM. For the compound `Cc1cc(Nc2nccc(C(F)(F)F)n2)cc(-n2cc([C@]3(O)CC[C@H](C(=O)O)CC3)nn2)c1` [Example 15.3, trans-4-hydroxy-4-[1-(3-methyl-5-{[4-(trifluoromethyl)pyrimidin-2-yl]amino}phenyl)-1H-1,2,3-triazol-4-yl]cyclohexanecarboxylic acid], the IC50 came to 232 nM. Next, `Cc1cc(Nc2cc(C(F)(F)F)ccn2)nc(-c2cn(-c3ncccc3Cl)nn2)c1` [Example 6.1, 6-(1-(3-Chloropyridin-2-yl)-1H-1,2,3-triazol-4-yl)-4-methyl-N-(4-(trifluoromethyl)pyridin-2-yl)pyridin-2-amine]: 41 nM; `Cc1cc(Nc2cc(C(F)(F)F)ccn2)nc(-c2cn(C(C)C(=O)NCCc3ccc4ccccc4c3)nn2)c1` (centres unmarked) [Example 1.32, 2-[4-(4-methyl-6-{[4-(trifluoromethyl)pyridin-2-yl]amino}pyridin-2-yl)-1H-1,2,3-triazol-1-yl]-N-(2-naphthalen-2-ylethyl)propanamide]: 357 nM; `Cc1cc(Nc2nccc(C(F)F)n2)cc(-c2cn(CC(C)(O)C(C)(C)O)nn2)c1` (centres unmarked) [Example 21.18, 1-[4-(3-{[4-(difluoromethyl)pyrimidin-2-yl]amino}-5-methylphenyl)-1H-1,2,3-triazol-1-yl]-2,3-dimethylbutane-2,3-diol]: 38.5 nM. Then `Cc1cc(Nc2cc(C(F)(F)F)ccn2)nc(-c2cn(C/C=C/COc3ccccc3Cl)nn2)c1` [Example 5.32, 6-{1-[(2E)-4-(2-chlorophenoxy)but-2-en-1-yl]-1H-1,2,3-triazol-4-yl}-4-methyl-N-[4-(trifluoromethyl)pyridin-2-yl]pyridin-2-amine], with 752 nM; and `Cc1cc(Nc2cc(C(F)(F)F)ccn2)nc(-c2cn(C3CCCC(O)C3O)nn2)c1` (centres unmarked) [Example 10.11, 3-[4-(4-methyl-6-{[4-(trifluoromethyl)pyridin-2-yl]amino}pyridin-2-yl)-1H-1,2,3-triazol-1-yl]cyclohexane-1,2-diol], with 3.3 nM. Next, `Cc1cc(Nc2cc(C(F)(F)F)ccn2)nc(-c2cn(CC(O)C(F)(F)F)nn2)c1` (racemic) [Example 5.83, 1,1,1-trifluoro-3-[4-(4-methyl-6-{[4-(trifluoromethyl)pyridin-2-yl]amino}pyridin-2-yl)-1H-1,2,3-triazol-1-yl]propan-2-ol]: 4.4 nM; `Cc1cc(Nc2cc(C(F)(F)F)ccn2)nc(-c2cn([C@@H](C)C(=O)N3CCC[C@H]3C(N)=O)nn2)c1` [Example 1.20, 1-{(2S)-2-[4-(4-methyl-6-{[4-(trifluoromethyl)pyridin-2-yl]amino}pyridin-2-yl)-1H-1,2,3-triazol-1-yl]propanoyl}prolinamide]: 87.2 nM. Regarding `COC(=O)[C@@H]1CCCN1C(=O)[C@@H](C)n1cc(-c2cc(C)cc(Nc3cc(C(F)(F)F)ccn3)n2)nn1` [Example 1.55, methyl 1-{(2R)-2-[4-(4-methyl-6-{[4-(trifluoromethyl)pyridin-2-yl]amino}pyridin-2-yl)-1H-1,2,3-triazol-1-yl]propanoyl}prolinate], the IC50 came out at 449 nM. Next, `Cc1cc(Nc2cc(C(F)(F)F)ccn2)nc(-c2cn(CC(O)CN3CCOC3=O)nn2)c1` (centres unmarked) [Example 4.33, 3-{2-hydroxy-3-[4-(4-methyl-6-{[4-(trifluoromethyl)pyridin-2-yl]amino}pyridin-2-yl)-1H-1,2,3-triazol-1-yl]propyl}-1,3-oxazolidin-2-one]: 14.9 nM; `Cc1cc(Nc2nccc(C(F)(F)F)n2)cc(-c2cn(CC(C)(C)O)nn2)c1` [Example 5.55, 2-methyl-1-[4-(3-methyl-5-{[4-(trifluoromethyl)pyrimidin-2-yl]amino}phenyl)-1H-1,2,3-triazol-1-yl]propan-2-ol]: 23.5 nM.

For `Cc1cc(Nc2nccc(C(F)F)n2)cc(-c2cn(C3CCCC(O)C3O)nn2)c1` (single isomer, unassigned) [Example 25.1, 3-(4-(3-((4-(Difluoromethyl)pyrimidin-2-yl)amino)-5-methylphenyl)-1H-1,2,3-triazol-1-yl)cyclohexane-1,2-diol], the IC50 worked out at 9.5 nM.

For the compound `Cc1cc(Nc2cc(C)c(F)cn2)nc(-c2cn(CC(C)(O)C(C)(C)O)nn2)c1` (centres unmarked) [Example 21.29, 1-(4-{6-[(5-fluoro-4-methylpyridin-2-yl)amino]-4-methylpyridin-2-yl}-1H-1,2,3-triazol-1-yl)-2,3-dimethylbutane-2,3-diol], the IC50 was 85.6 nM. Next, `Cc1cc(Nc2cc(C(F)(F)F)ccn2)nc(-c2cn(CC(O)CN3CCCC3=O)nn2)c1` (centres unmarked) [Example 4.30, 1-{2-hydroxy-3-[4-(4-methyl-6-{[4-(trifluoromethyl)pyridin-2-yl]amino}pyridin-2-yl)-1H-1,2,3-triazol-1-yl]propyl}pyrrolidin-2-one]: 26.6 nM; `Cc1cc(Nc2nccc(C(F)(F)F)n2)cc(-c2cn(CCC(=O)O)nn2)c1` [Example 5.60, 3-[4-(3-methyl-5-{[4-(trifluoromethyl)pyrimidin-2-yl]amino}phenyl)-1H-1,2,3-triazol-1-yl]propanoic acid]: 41.8 nM; `Cc1cc(Nc2cc(C(F)(F)F)ccn2)nc(-c2cn(C(C)C(=O)NCCc3ccc(Oc4ccccc4)cc3)nn2)c1` (centres unmarked) [Example 1.46, 2-[4-(4-methyl-6-{[4-(trifluoromethyl)pyridin-2-yl]amino}pyridin-2-yl)-1H-1,2,3-triazol-1-yl]-N-[2-(4-phenoxyphenyl)ethyl]propanamide]: 1400 nM. Next, `Cc1cc(Nc2cc(C(F)(F)F)ccn2)nc(-c2cn(C[C@@H](O)C(N)=O)nn2)c1` [Example 1.14, (2R)-2-hydroxy-3-[4-(4-methyl-6-{[4-(trifluoromethyl)pyridin-2-yl]amino}pyridin-2-yl)-1H-1,2,3-triazol-1-yl]propanamide]: 9.1 nM; `CCOc1ccnc(Nc2cc(C)cc(-c3cn(C(C)c4ccc(C(=O)O)cc4)nn3)n2)c1` (centres unmarked) [Example 2.9, 4-[1-(4-{6-[(4-ethoxypyridin-2-yl)amino]-4-methylpyridin-2-yl}-1H-1,2,3-triazol-1-yl)ethyl]benzoic acid]: 58.7 nM; `Cc1cc(Nc2cc(C(F)(F)F)ccn2)nc(-c2cn([C@@H]3CN(C(=O)CO)C[C@H]3O)nn2)c1` (racemic) [Example 13.1, (+/−)-2-Bydroxy-1-((3R,4R)-3-hydroxy-4-(4-(4-methyl-6-((4-(trifluoromethyl)pyridin-2-yl)amino)pyridin-2-yl)-1H-1,2,3-triazol-1-yl)pyrrolidin-1-yl)ethanone]: 4.2 nM.

For the compound `Cc1cc(Nc2nccc(C(F)F)n2)cc(-c2cn(CC3(O)CNC(=O)C3)nn2)c1` (single isomer, unassigned) [Example 31.1, 4-((4-(3-((4-(Difluoromethyl)pyrimidin-2-yl)amino)-5-methylphenyl)-1H-1,2,3-triazol-1-yl)methyl)-4-hydroxypyrrolidin-2-one], the IC50 was determined as 7.3 nM.
